# Reference: patent US20260355188A1, “COMBINATION THERAPIES USING PRMT5 INHIBITORS AND BCL-2 FAMILY INHIBITORS FOR THE TREATMENT OF CANCER” (MIRATI THERAPEUTICS, INC., priority 2022, published 2026)
# Assays:
# [1] = oral; cited from earlier work
# A549 = test: In vitro combination synergy, A549 (Cell-Titer Glo); assay type: cell-based; details: combined with exemplary PRMT5 inhibitor, 120 h, sum of Loewe, Bliss, HSA and ZIP scores
# Method: A panel of MTAP-deleted cancer cell lines was assembled to determine whether combining BCL-2 family inhibitors with exemplary PRMT5 inhibitors disclosed herein results in synergistic activity.
# [Assays for determining the synergy score for the pairwise combinations for each cell line were performed in triplicate. 384 or 96-well plates plus additional wells of a separate 384 or 96-well control plate for determining baseline luminescence were seeded with cells of a particular MTAP-deleted cell line in a suitable growth medium for that cell line, e.g., RPMI 1640 medium supplemented with 10% FBS and any cell line specific reagents needed for growth. The plates were incubated overnight at 37 °C in a 5% CO2 atmosphere.
# To each of the designated baseline wells, Cell-Titer Glo reagent (CTG; Promega Corporation) was added to each well and the plates were incubated for 20 min shaking at room temperature. Baseline luminescence was quantitated using a BMG ClarioStar multimode plate reader according to the manufacturer's instructions.
# A series of 1000× drug dilutions in 100% DMSO was prepared that includes a 9-point single agent 3-fold dilution of the exemplary PRMT5 inhibitor (of the type described in WO2021/050915) with a top dose of 3000 nM (and a 6-point single agent 5-fold dilution of the BCL-2 family inhibitor with a top dose of 3000 nM as reference standards.
# A 10× intermediate dosing plate was prepared in serum free medium that contains arrayed single agent dilutions of exemplary PRMT5 inhibitor (of the type described in WO2021/050915) and or the BCL-2 family inhibitor. In addition, a matrix of 54 dilution combinations of exemplary PRMT5 inhibitor (of the type described in WO2021/050915) and the BCL-2 family inhibitor was prepared as test samples.
# To each corresponding well of the 384-well plates seeded with the appropriate cell line above, 10× single agent and the 54 combinations of the dose matrix was added and the plates were incubated for 120 hours at 37 °C in 5% CO2 atmosphere. Cell-Titer Glo reagent (CTG) was added to each test well, the plates were incubated for 20 min shaking at room temperature, and luminescence was quantitated using a BMG ClarioStar multimode plate reader according to the manufacturer's instructions. To normalize test samples, the determined baseline luminescence was subtracted from each test sample prior to analysis and mean values are calculated from replicate samples.
# The output of the data from each mathematical model is the assignment of a relative synergy score. The data reported in Table 6 are the aggregate sum of the Loewe additivity, Bliss independence, Highest Single Agent and ZIP synergy scores (“Composite Synergy Score”).
SMILES,bioavailable when administered orally [1],Composite Synergy Score (A549)
Cc1c(-c2ccc(N3CCc4cccc(C(=O)Nc5nc6ccccc6s5)c4C3)nc2C(=O)O)cnn1CC12CC3CC(CC(C3)C1)C2 [A-1331852],known to be bioavailable when administered orally,42
"CC1(C)CCC(c2ccc(Cl)cc2)=C(CN2CCN(c3ccc(C(=O)NS(=O)(=O)c4ccc(N[C@H](CCN5CCOCC5)CSc5ccccc5)c(S(=O)(=O)C(F)(F)F)c4)cc3)CC2)C1 [ABT-263, navitoclax]",,23
